{
  "source": "paper PMC8850458",
  "about": "“The AUTOTAC chemical biology platform for targeted protein degradation via the autophagy-lysosome system” (Nature Communications, 2022)",
  "key": {"E1": {"tested_on": "E1", "design": "method as in printed", "conditions": "authors' reply, ref not given; cited from earlier work"}, "wild-type desmin": {"target": "T1, wild-type desmin (Homo sapiens, UniProt P17661)", "T1 construct": "expressed in transfected cells; host or cells: HeLa, transient", "assay": "WB degradation of wild-type desmin in HeLa cells", "assay_type": "cell-based", "conditions": "exogenously expressed", "method": "(§1) Adherent cells were washed with phosphate-buffered saline (PBS) and cell pellets were lysed in SDS-based sample buffer (277.8 mM Tris-HCI, pH 6.8, 4.4% LDS, 44.4% (v/v) glycerol) containing beta-mercaptoethanol. Alternatively, cell pellets or protein supernatants were lysed in 5X Laemmli sample buffer. Whole-cell lysates were separated using SDS-PAGE, and transferred onto polyvinyllidene difluoride membranes at 100 V for 2 h at 4 °C. The membrane was incubated with a blocking solution consisting 4% skim milk in PBS solution for 30 min at room temperature and incubated with primary antibodies overnight, followed by incubation with host-specific HRP-conjugated secondary antibodies (1:10000 dilution). For signal detection, the membrane was developed with a mixture of ECL solution (Thermo Fisher Scientific) using X-ray films. Densitometry of developed bands was measured and analyzed with ImageJ (NIH, Bethesda).\n(§2) Supplementary Fig. 5. AUTOTACs selectively target pathological aggregation-prone proteins for autophagic degradation. (a) WB in HEK293T cells treated with PBA-1105 (1 μM) and MG132 (1 μM, 24 h) at the indicated time points. (b) ICC of HeLa cells treated with the indicated compounds (1 μM, 24 h). Scale bar, 10 μm. (c) WB in HEK293T cells treated with PBA-1105 (500 nM, 24 h) and MG132 (1 μM, 24 h) under siRNA-mediated knockdown of p62 or ATG7 (20 nM, 48 h). (d) ICC in HeLa cells transiently expressing WIPI2-GFP and treated with Anle138b-F105 (1 μM, 24 h). Scale bar, 10 μm. (e) ICC in HeLa cells treated with […]\n(§3) nM, 24 h). (g, h) WB in HeLa cells transiently expressing wild type or mutant (L385P) desmin-flag with LacZ-myc and treated with PBA-1105, PBA-1105b or Anle138b-F105 at the […]"}, "tauP301L": {"target": "tauP301L (Homo sapiens, UniProt P10636, P618L)", "sequence (P10636 1-441 isoform P10636-8 P301L)": "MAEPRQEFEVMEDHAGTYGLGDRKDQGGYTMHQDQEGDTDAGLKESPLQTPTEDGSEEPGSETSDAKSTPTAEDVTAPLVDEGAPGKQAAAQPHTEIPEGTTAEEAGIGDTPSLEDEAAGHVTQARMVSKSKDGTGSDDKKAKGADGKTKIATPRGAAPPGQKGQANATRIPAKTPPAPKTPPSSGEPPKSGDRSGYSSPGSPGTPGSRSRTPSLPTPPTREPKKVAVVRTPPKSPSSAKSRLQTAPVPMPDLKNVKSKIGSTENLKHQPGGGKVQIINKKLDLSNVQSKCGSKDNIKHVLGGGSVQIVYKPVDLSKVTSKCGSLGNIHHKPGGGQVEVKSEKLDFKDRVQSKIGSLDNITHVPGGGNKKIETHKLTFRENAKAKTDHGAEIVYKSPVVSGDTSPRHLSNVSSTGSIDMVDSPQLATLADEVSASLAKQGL", "assay": "WB degradation of tauP301L in SH-SY5Y-tauP301L cells", "assay_type": "cell-based", "outline": "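Lysates in SDS/LDS or Laemmli sample buffer were separated by SDS-PAGE and blotted to PVDF. Target protein was detected with primary antibodies, HRP secondary and ECL on X-ray film, and degradation quantified by band densitometry.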"}, "mutant desminL385P": {"target": "T2, mutant desminL385P (Homo sapiens, UniProt P17661, L385P)", "T2 construct": "expressed in transfected cells; host or cells: HeLa, transient", "T2 sequence (P17661 whole entry L385P)": "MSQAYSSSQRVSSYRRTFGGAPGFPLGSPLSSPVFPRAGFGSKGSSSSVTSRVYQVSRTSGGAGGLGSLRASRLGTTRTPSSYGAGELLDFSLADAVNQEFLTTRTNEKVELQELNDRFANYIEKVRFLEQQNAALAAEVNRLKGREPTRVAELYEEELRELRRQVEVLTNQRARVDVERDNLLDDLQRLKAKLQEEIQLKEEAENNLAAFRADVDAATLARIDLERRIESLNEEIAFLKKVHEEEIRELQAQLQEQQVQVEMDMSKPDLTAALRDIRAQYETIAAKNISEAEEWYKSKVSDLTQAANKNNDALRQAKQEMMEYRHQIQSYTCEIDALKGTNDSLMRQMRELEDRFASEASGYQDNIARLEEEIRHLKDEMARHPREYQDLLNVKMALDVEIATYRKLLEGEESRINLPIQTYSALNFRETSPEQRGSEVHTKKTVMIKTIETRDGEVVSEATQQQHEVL", "assay": "WB degradation of mutant desmin in HeLa cells", "assay_type": "cell-based", "conditions": "exogenously expressed", "method": "as §1, §2, §3"}, "p62": {"target": "T3, p62 (Homo sapiens, UniProt Q13501)", "T3 construct": "expressed in transfected cells; host or cells: HEK293T, transient; whole lysate used", "T3 sequence (Q13501 whole entry, the tested form may be a part)": "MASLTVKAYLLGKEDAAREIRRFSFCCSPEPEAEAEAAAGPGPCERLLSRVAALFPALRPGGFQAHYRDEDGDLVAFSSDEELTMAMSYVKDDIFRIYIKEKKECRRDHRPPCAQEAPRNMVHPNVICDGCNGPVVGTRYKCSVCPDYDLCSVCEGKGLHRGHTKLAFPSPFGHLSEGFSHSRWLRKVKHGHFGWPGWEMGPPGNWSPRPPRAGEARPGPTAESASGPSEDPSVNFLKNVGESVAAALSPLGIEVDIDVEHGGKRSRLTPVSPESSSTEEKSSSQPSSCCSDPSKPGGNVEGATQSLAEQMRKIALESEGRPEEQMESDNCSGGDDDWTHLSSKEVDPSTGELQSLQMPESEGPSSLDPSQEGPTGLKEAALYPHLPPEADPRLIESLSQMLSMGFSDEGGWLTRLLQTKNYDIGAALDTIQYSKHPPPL", "assay": "In vitro p62 oligomerization assay", "assay_type": "biochemical", "conditions": "HEK293T lysate", "method": "HEK293T cells were transiently transfected with a plasmid encoding p62-myc/his fusion proteins. Cells were resuspended in lysis buffer [50 mM HEPES (pH 7.4), 0.15 M KCl, 0.1% Nonidet P-40), 10% glycerol, containing a mixture of protease inhibitors and phosphatase inhibitor (Abcam)]. To lyse the cells, 10 cycles of freezing and thawing was done, followed by centrifugation at 13,000 × g for 20 min at 4 °C. Using a BCA assay, the protein concentration of the supernatant was measured. A total of 1 μg of protein was incubated with 1 mM of p62-ZZ ligands in the presence of 100 μM bestatin (Enzo) at room temperature for 2 h. After incubation, each sample was mixed with non-reducing 4X LDS sample buffer, heated at 95 °C for 10 min, and resolved using 4–20% gradient SDS-PAGE (Bio-Rad). To monitor the conversion of p62 monomers into oligomers or aggregates, IB assay was performed using anti-myc antibody."}, "[1]": {"tested_on": "mutant huntingtin (Htt-NES-Q97, Htt-NLS-Q97)", "assay": "WB autophagy flux/degradation of mutant huntingtin in HeLa cells", "assay_type": "cell-based", "conditions": "HttQ97-NLS-GFP, 24 h post-treatment; read-out: DC50 against the nuclear subpopulation of Htt", "method": "as §1\nSupplementary Fig. 7. AUTOTACs selectively degrade pathological mutant huntingtin.\n(a) WB in HeLa-Htt-NLS-Q97-GFP cells treated with PBA-1106 or PBA-1105 (2.5 μM, 24 h) with or without HCQ (25 μM, 24 h). (b) Identical to a but with YOK-1106 instead of PBA-1105 in HeLa-Htt-NES-Q97-GFP cells. […] (k) Quantification of j (n=3 biologically independent experiments each counting 50 cells). […]"}, "[2]": {"tested_on": "U87-MG glioblastoma cells", "assay": "Wound healing assay in U87-MG cells", "assay_type": "cell-based", "conditions": "as early as 4 h and up to 24 h post-scratch", "method": "To analyze cell migration in two dimensions, U-87 MG or ACHN cells were plated to a monolayer. Cells were scratched with a sterile 10 μl pipette tip and the debris was removed using medium. Cells were treated with compounds and incubated for different time to monitor cell behavior. Photographs were obtained using a microscope at different time point."}, "HeLa cells": {"tested_on": "HeLa cells", "assay": "Flow cytometry (propidium iodide, sub-G1)", "assay_type": "cell-based", "conditions": "1 µM, 48 h", "method": "Cell death and cell cycle arrest were quantified by staining cells with propidium iodide for flow cytometry with a BD FACSCalibur (BD Biosciences) according to the manufacturer’s instructions. […] Cells were collected by centrifugation and fixed in 70% ethanol at 4 °C for 24 h. Cells were washed with PBS and stained with propidium iodide (10 µg/mL) with RNAse treatment at 37 °C for 30 min. DNA content at each cell cycle checkpoint was measured and analyzed using BD CellQuest Pro (BD Biosciences) and ModFit LT Systems (Verity Software House)."}, "[3]": {"target": "T4, methionine aminopeptidase 2 (MetAP2) (Homo sapiens, UniProt P50579)", "T4 construct": "Targeted autophagic degradation of endogenous oncoproteins by AUTOTAC; endogenous in cells; host or cells: HEK293 / HEK293T, U87-MG", "T4 sequence (P50579 whole entry)": "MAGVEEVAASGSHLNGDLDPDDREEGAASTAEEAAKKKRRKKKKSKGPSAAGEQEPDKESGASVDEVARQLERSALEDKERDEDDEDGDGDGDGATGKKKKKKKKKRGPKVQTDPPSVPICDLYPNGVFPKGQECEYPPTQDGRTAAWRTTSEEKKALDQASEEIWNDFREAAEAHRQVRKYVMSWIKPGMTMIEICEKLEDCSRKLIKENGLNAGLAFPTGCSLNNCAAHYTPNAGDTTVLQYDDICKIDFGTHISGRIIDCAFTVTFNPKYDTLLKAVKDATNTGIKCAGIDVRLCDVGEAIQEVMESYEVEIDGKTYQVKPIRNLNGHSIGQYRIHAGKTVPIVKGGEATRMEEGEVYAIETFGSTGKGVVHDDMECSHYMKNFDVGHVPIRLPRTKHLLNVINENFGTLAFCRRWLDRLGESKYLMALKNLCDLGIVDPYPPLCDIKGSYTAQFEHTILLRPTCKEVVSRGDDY", "assay": "Western blot degradation of MetAP2", "assay_type": "cell-based", "conditions": "for DC50: read-out: DC50 for MetAP2", "method": "as §1"}},
  "note": "Several values for one entry are separate records, joined by “and”; a condition that tells them apart may be missing. Equal values may be shown once. Read-outs that look alike come from different tables or passages of the source.",
  "data": [
    {"smiles": "CCOC(=O)c1ccc(N2NC(=O)/C(=C/c3ccc([N+](=O)[O-])o3)C2=O)cc1", "note": "[pyr41]", "values": [
      {"measurement": "IC50", "setting": "E1", "result": "< 10", "unit": "µM"}
    ]},
    {"smiles": "Fc1ccc(COc2cccc(CNCCOCCOCCNc3cccc(-c4cc(-c5ccc6c(c5)OCO6)n[nH]4)c3)c2)cc1", "note": "[Anle138b-F105]", "values": [
      {"measurement": "degradation of wild-type desmin", "setting": "wild-type desmin", "result": "not wild-type desmin"},
      {"measurement": "persistence of mutant tau degradation post-washout", "setting": "tauP301L; 100 nM 24 h, then washout", "result": "at least 8 h"},
      {"measurement": "DC50", "setting": "tauP301L; SH-SY5Y-tauP301L cells", "result": "~0.003", "unit": "µM"},
      {"measurement": "degradation of mutant desminL385P", "setting": "mutant desminL385P", "result": "induced the degradation"},
      {"measurement": "p62 self-oligomerization", "setting": "p62", "result": "facilitated p62 self-polymerization"},
      {"measurement": "DC50", "setting": "[1]", "result": "~0.003", "unit": "µM"}
    ]},
    {"smiles": "COC1C(OC(=O)C=CC=CC=CC=CC(=O)NCCOCCOCCNCc2cccc(OCc3ccccc3)c2)CCC2(CO2)C1C1(C)OC1CC=C(C)C", "note": "(centres unmarked) [Fumagillin-105]", "values": [
      {"measurement": "inhibition of migration", "setting": "[2]", "result": "more efficiently inhibited the migration"},
      {"measurement": "programmed cell death (sub-G1 subpopulation)", "setting": "HeLa cells", "result": "induced programmed cell death"},
      {"measurement": "MetAP2 normalized to control, AVG %", "setting": "[3]; 293T, 24 h, 1nM", "result": 99.8808, "unit": "%"},
      {"measurement": "MetAP2 normalized to control, AVG %", "setting": "[3]; 293T, 24 h, 10nM", "result": 77.0205, "unit": "%"},
      {"measurement": "MetAP2 normalized to control, AVG %", "setting": "[3]; 293T, 24 h, 100nM", "result": 98.7214, "unit": "%"},
      {"measurement": "MetAP2 normalized to control, AVG %", "setting": "[3]; 293T, 24 h, 1uM", "result": 25.6004, "unit": "%"},
      {"measurement": "MetAP2 normalized to control, AVG %", "setting": "[3]; 293T, 24 h, 2.5uM", "result": 44.4377, "unit": "%"},
      {"measurement": "MetAP2 normalized to control, AVG %", "setting": "[3]; 293T, 24 h, 5uM", "result": 22.9281, "unit": "%"},
      {"measurement": "MetAP2 normalized to control, AVG %", "setting": "[3]; 293T, 24 h, 10uM", "result": 19.1769, "unit": "%"},
      {"measurement": "Dmax, 24 hr for MetAP2", "setting": "[3]; HEK293 cells", "result": "1 to 10", "unit": "µM"},
      {"measurement": "remaining activity at 0.001 µM", "setting": "[3]; HEK-293T, 24 h, 293T, 24 h, 1nM, single experiments, read-out: MetAP2 normalized to GAPDH and to control, percentage", "result": 98.3, "unit": "%"},
      {"measurement": "remaining activity at 0.1 µM", "setting": "[3]; HEK-293T, 24 h, 293T, 24 h, 100nM, single experiments, read-out: MetAP2 normalized to GAPDH and to control, percentage", "result": 98, "unit": "%"},
      {"measurement": "remaining activity at 1 µM", "setting": "[3]; HEK-293T, 24 h, 293T, 24 h, 1uM, single experiments, read-out: MetAP2 normalized to GAPDH and to control, percentage", "result": 19.3, "unit": "%"},
      {"measurement": "remaining activity at 2.5 µM", "setting": "[3]; HEK-293T, 24 h, 293T, 24 h, 2.5uM, single experiments, read-out: MetAP2 normalized to GAPDH and to control, percentage", "result": 52.8, "unit": "%"},
      {"measurement": "DC50", "setting": "[3]; U87-MG glioblastoma cells, 24 h", "result": "~0.5", "unit": "µM"},
      {"measurement": "DC50", "setting": "[3]; HEK293 cells (legend: HEK293T), 24 h", "result": "~0.7 µM and 0.701 µM"}
    ]}
  ]
}
